Laboratory results: the supplement of paper PMC10307832

Key:
Experiment in all cases: relative viability (nuclei count vs DMSO), 5 days (fraction); higher = more cells survive
NCI-H1666 = system: NCI-H1666
Outline: (§1)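 Nuclei were stained with Hoechst during a one-step fixation (final 0.05% Triton X-100, 1% formaldehyde, 1 ug/ml Hoechst) carried out 5 days after dosing, then counted on 4× images. The cells, lung cancer lines in 1536-well plates, had been dosed by pin tool the day after seeding with one drug alone or a fixed anchor-drug dose plus five library-drug doses (not always all listed) in √10 steps. Relative viability is the nuclei count in treated wells divided by that in vehicle wells, and each value is the median of duplicate plates.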

LU99A = system: LU99A
Outline: as §1

NCI-H2085 = system: NCI-H2085
Outline: as §1

NCI-H2009 = system: NCI-H2009
Outline: as §1

A-427 = system: A-427
Outline: as §1

NCI-H1944 = system: NCI-H1944
Outline: as §1

HCC-78 = system: HCC-78
Outline: as §1

UMC-11 = system: UMC-11
Outline: as §1

LXF-289 = system: LXF-289
Outline: as §1

SW 900 = system: SW 900
Outline: as §1

NCI-H1915 = system: NCI-H1915
Outline: as §1

LC-2-ad = system: LC-2-ad
Outline: as §1

NCI-H460 = system: NCI-H460
Outline: as §1

NCI-H1793 = system: NCI-H1793
Outline: as §1

EPLC-272H = system: EPLC-272H
Outline: as §1

HOP-62 = system: HOP-62
Outline: as §1

NCI-H358 = system: NCI-H358
Outline: as §1

COR-L 105 = system: COR-L 105
Outline: as §1

HCC-366 = system: HCC-366
Outline: as §1

SK-LU-1 = system: SK-LU-1
Outline: as §1

NCI-H2170 = system: NCI-H2170
Outline: as §1

## CCN(CC)CCCCNc1ncc2cc(-c3cc(OC)cc(OC)c3)c(NC(=O)NC(C)(C)C)nc2n1 + O=C(CCCCCCC(=O)Nc1ccccc1)NO [Vorinostat] (partner 1 µM)
NCI-H1666; first compound 0.01 µM
  relative viability: 1.13
NCI-H1666; first compound 0.03162 µM
  relative viability: 1.01
NCI-H1666; first compound 0.1 µM
  relative viability: 1.04
NCI-H1666; first compound 0.3162 µM
  relative viability: 1.1
NCI-H1666; first compound 1 µM
  relative viability: 1.05
LU99A; first compound 0.01 µM
  relative viability: 0.528
LU99A; first compound 0.03162 µM
  relative viability: 0.601
LU99A; first compound 0.1 µM
  relative viability: 0.541
LU99A; first compound 0.3162 µM
  relative viability: 0.529
LU99A; first compound 1 µM
  relative viability: 0.423
NCI-H2085; first compound 0.01 µM
  relative viability: 0.782
NCI-H2085; first compound 0.03162 µM
  relative viability: 0.8
NCI-H2085; first compound 0.1 µM
  relative viability: 0.935
NCI-H2085; first compound 0.3162 µM
  relative viability: 0.858
NCI-H2085; first compound 1 µM
  relative viability: 0.793
NCI-H2009; first compound 0.01 µM
  relative viability: 0.731
NCI-H2009; first compound 0.03162 µM
  relative viability: 0.749
NCI-H2009; first compound 0.1 µM
  relative viability: 0.78
NCI-H2009; first compound 0.3162 µM
  relative viability: 0.78
NCI-H2009; first compound 1 µM
  relative viability: 0.624
A-427; first compound 0.01 µM
  relative viability: 0.806
A-427; first compound 0.03162 µM
  relative viability: 0.919
A-427; first compound 0.1 µM
  relative viability: 1.02
A-427; first compound 0.3162 µM
  relative viability: 0.926
A-427; first compound 1 µM
  relative viability: 0.817
NCI-H1944; first compound 0.01 µM
  relative viability: 0.536
NCI-H1944; first compound 0.03162 µM
  relative viability: 0.676
NCI-H1944; first compound 0.1 µM
  relative viability: 0.596
NCI-H1944; first compound 0.3162 µM
  relative viability: 0.576
NCI-H1944; first compound 1 µM
  relative viability: 0.521
HCC-78; first compound 0.01 µM
  relative viability: 0.479
HCC-78; first compound 0.03162 µM
  relative viability: 0.487
HCC-78; first compound 0.1 µM
  relative viability: 0.478
HCC-78; first compound 0.3162 µM
  relative viability: 0.456
HCC-78; first compound 1 µM
  relative viability: 0.497
UMC-11; first compound 0.01 µM
  relative viability: 0.4
UMC-11; first compound 0.03162 µM
  relative viability: 0.36
UMC-11; first compound 0.1 µM
  relative viability: 0.361
UMC-11; first compound 0.3162 µM
  relative viability: 0.394
UMC-11; first compound 1 µM
  relative viability: 0.311
LXF-289; first compound 0.01 µM
  relative viability: 0.768
LXF-289; first compound 0.03162 µM
  relative viability: 0.905
LXF-289; first compound 0.1 µM
  relative viability: 0.829
LXF-289; first compound 0.3162 µM
  relative viability: 0.85
LXF-289; first compound 1 µM
  relative viability: 0.661
SW 900; first compound 0.01 µM
  relative viability: 0.551
SW 900; first compound 0.03162 µM
  relative viability: 0.626
SW 900; first compound 0.1 µM
  relative viability: 0.44
SW 900; first compound 0.3162 µM
  relative viability: 0.412
SW 900; first compound 1 µM
  relative viability: 0.254
NCI-H1915; first compound 0.01 µM
  relative viability: 0.452
NCI-H1915; first compound 0.03162 µM
  relative viability: 0.531
NCI-H1915; first compound 0.1 µM
  relative viability: 0.537
NCI-H1915; first compound 0.3162 µM
  relative viability: 0.456
NCI-H1915; first compound 1 µM
  relative viability: 0.513
LC-2-ad; first compound 0.01 µM
  relative viability: 0.716
LC-2-ad; first compound 0.03162 µM
  relative viability: 0.798
LC-2-ad; first compound 0.1 µM
  relative viability: 0.76
LC-2-ad; first compound 0.3162 µM
  relative viability: 0.739
LC-2-ad; first compound 1 µM
  relative viability: 0.66
NCI-H460; first compound 0.01 µM
  relative viability: 0.817
NCI-H460; first compound 0.03162 µM
  relative viability: 0.793
NCI-H460; first compound 0.1 µM
  relative viability: 1.39
NCI-H460; first compound 0.3162 µM
  relative viability: 0.763
NCI-H460; first compound 1 µM
  relative viability: 0.557
NCI-H1793; first compound 0.01 µM
  relative viability: 0.724
NCI-H1793; first compound 0.03162 µM
  relative viability: 0.707
NCI-H1793; first compound 0.1 µM
  relative viability: 0.898
NCI-H1793; first compound 0.3162 µM
  relative viability: 0.816
NCI-H1793; first compound 1 µM
  relative viability: 0.599
EPLC-272H; first compound 0.01 µM
  relative viability: 0.4
EPLC-272H; first compound 0.03162 µM
  relative viability: 0.537
EPLC-272H; first compound 0.1 µM
  relative viability: 0.277
EPLC-272H; first compound 0.3162 µM
  relative viability: 0.493
EPLC-272H; first compound 1 µM
  relative viability: 0.335
HOP-62; first compound 0.01 µM
  relative viability: 0.715
HOP-62; first compound 0.03162 µM
  relative viability: 0.595
HOP-62; first compound 0.1 µM
  relative viability: 0.616
HOP-62; first compound 0.3162 µM
  relative viability: 0.65
HOP-62; first compound 1 µM
  relative viability: 0.663
NCI-H358; first compound 0.01 µM
  relative viability: 0.684
NCI-H358; first compound 0.03162 µM
  relative viability: 0.879
NCI-H358; first compound 0.1 µM
  relative viability: 0.813
NCI-H358; first compound 0.3162 µM
  relative viability: 0.806
NCI-H358; first compound 1 µM
  relative viability: 0.583
COR-L 105; first compound 0.01 µM
  relative viability: 0.771
COR-L 105; first compound 0.03162 µM
  relative viability: 0.774
COR-L 105; first compound 0.1 µM
  relative viability: 0.981
COR-L 105; first compound 0.3162 µM
  relative viability: 0.796
COR-L 105; first compound 1 µM
  relative viability: 0.805
HCC-366; first compound 0.01 µM
  relative viability: 0.414
HCC-366; first compound 0.03162 µM
  relative viability: 0.369
HCC-366; first compound 0.1 µM
  relative viability: 0.423
HCC-366; first compound 0.3162 µM
  relative viability: 0.383
HCC-366; first compound 1 µM
  relative viability: 0.288
SK-LU-1; first compound 0.01 µM
  relative viability: 0.922
SK-LU-1; first compound 0.03162 µM
  relative viability: 0.795
SK-LU-1; first compound 0.1 µM
  relative viability: 0.782
SK-LU-1; first compound 0.3162 µM
  relative viability: 0.973
SK-LU-1; first compound 1 µM
  relative viability: 0.67
NCI-H2170; first compound 0.01 µM
  relative viability: 0.782
NCI-H2170; first compound 0.03162 µM
  relative viability: 0.92
NCI-H2170; first compound 0.1 µM
  relative viability: 0.983
NCI-H2170; first compound 0.3162 µM
  relative viability: 0.969
NCI-H2170; first compound 1 µM
  relative viability: 0.776
